Results published in US20220305037A1, “Treatment of Cancer” (Sumitomo Dainippon Pharma Oncology, Inc., priority 2019, published 2022).

Columns and labels:
[1] = tested on: patients with newly diagnosed, previously untreated AML; test: Phase 1 dose-escalation study of alvocidib followed by cytarabine/daunorubicin (7+3): response assessment by ELN Guidelines; assay type: in vivo, human
Protocol: Methods: Study Population. This was a Phase 1, open-label, multicenter, dose-escalation study of alvocidib followed by cytarabine/daunorubicin (7+3) in patients with AML (NCT03298984). Patients aged 18-65 years with newly diagnosed, previously untreated AML and pathological confirmation of bone marrow (BM) blasts ≥20% were eligible. Key inclusion criteria included: Eastern Cooperative Oncology Group (ECOG) performance status (PS) ≤2, serum creatinine level ≤1.8 mg/dL, alanine aminotransferase (ALT) and aspartate aminotransferase (AST) ≤5 times upper limit of normal (ULN), total bilirubin ≤2.0 mg/dL, and left ventricular ejection fraction (EF) >45%. Patients were excluded if they had previous treatment for AML (with the exception of hydroxyurea), and were diagnosed with acute promyelocytic leukemia (APL-M3) or core-binding factor AML ((CBF-AML: t(8;21); inv(16); t(16;16)). All patients provided written informed consent. This study was conducted as per the Declaration of Helsinki after approval by ethics committee of each participating center.
Treatment Plan: Induction.
Consolidation. Patients who achieved a complete remission (CR) received 2 to 4 cycles of consolidation therapy with high dose cytarabine (HiDAC) 3 gm/m^2 IV every 12 hours on days 1, 3 and 5 upon full hematological recovery (absolute neutrophil count >1×10^−3/L and platelets >1×10^1/L). HiDAC was permitted to be dose reduced to 1.5 gm/m^2 IV every 12 hours on days 1, 3 and 5 in those >60 years. Allogeneic stem cell transplantation was permitted after induction per standard of care but was recommended after at least 1 cycle of HiDAC consolidation in those who achieved CR.
Response Assessments. Response assessment was performed by a bone marrow aspirate and biopsy at the time of full hematologic recovery or by day 50 and day 60 of 1 versus 2 induction cycles, respectively. Response to therapy was assessed by standardized ELN Guidelines. In those who achieved CR and received consolidation therapy, a bone marrow aspirate and biopsy was performed after cycle 2 of HiDAC, after completion of consolidation therapy, and at any suspicion of relapse.
(§1) Statistical Analysis. […] Intra-patient dose escalation was not permitted. […] Database lock was on Apr. 30, 2020.

[2] = tested on: patients with newly diagnosed, previously untreated AML
Protocol: Treatment Plan: Induction. Alvocidib was dose-escalated starting at dose level 1: 20 mg/m^2 30-minute IV bolus followed by 30 mg/m^2 IV infusion over 4 hours on Days 1-3 (FIG. 1). Daunorubicin 60 mg/m^2 IV bolus over 15 minutes was initiated on days 5-7, and cytarabine 100 mg/m^2/day IV continuous 24-hour infusion was administered on Days 5-11. A bone marrow aspirate and biopsy was performed on day 14 (+/−3 days) and patients with residual leukemia (>5% bone marrow blasts and >10% cellularity) were recommended to receive a second induction cycle with alvocidib on days 1-3 (same dose level as induction) followed by daunorubicin 45 mg/m^2/day IV over 15 minutes on days 5 and 6 and cytarabine 100 mg/m^2/day IV continuous infusion over days 5-9 (“5+2”).
Statistical Analysis. Alvocidib dose was escalated using a 3+3 design (FIG. 1). Successive cohorts of patients (3-6 per cohort) were treated with escalated doses until the maximal tolerated dose (MTD) was established. Intra-patient dose escalation was not permitted. Descriptive analysis was performed for the safety and efficacy endpoints. MTD for alvocidib was estimated by the highest alvocidib dose for which the incidence of DLT during Cycle 1 was less than 33% in combination with 7+3. Kaplan-Meier time-to-event analyses were performed on overall survival (OS), relapse-free survival and duration of remission. […]

[3] = tested on: patients with newly diagnosed, previously untreated AML; test: Kaplan-Meier time-to-event analyses and clinical outcomes (OS, EFS, RFS, relapse) in the Phase 1 study; assay type: in vivo, human
Excerpt: as §1

[4] = tested on: patients with newly diagnosed, previously untreated AML; test: Minimal residual disease (MRD) analysis of bone marrow by flow cytometry in the Phase 1 study; assay type: in vivo, human
Protocol: Minimal Residual Disease (MRD) Analysis. MRD was assessed in bone marrow samples at the time of response by a uniform central assay (Hematologics, Inc.) in an exploratory cohort, as has been previously described. Samples were first incubated with antibodies for 20 minutes at room temperature. Red blood cells were then lysed at 37° C. using buffered NH4Cl for 5 minutes, followed by centrifugation at 300 g. Cells were subsequently washed with PBS supplemented with 2% FCS and resuspended in 1% paraformaldehyde. Samples were analyzed on a FACSCalibur™ flow cytometer (Becton Dickinson Biosciences). 200,000 events were analyzed for each sample. Data analysis was performed with WinList™ software (Verity Software House). Two independent reviewers viewed each sample to arrive at a consensus on the data.

[5] = tested on: MCL-1 protein levels in blasts; details: cited from earlier work
MDS blasts = test: MCL-1 dependency assay of MDS blasts after azacitidine pre-treatment; assay type: cell-based, human; details: patient sample MDS1060; MCL-1 dependency cut-off of 40%
Protocol: CD13, CD33, CD34, CD45, CD3 and CD20 were used as markers to identify MDS blasts, and to perform MCL-1 dependency analyses. MDS blasts were positive for CD13, CD33 and CD34, dim for CD45 and negative for CD3 and CD20.
On day 1 of the MCL-1 dependency assay, 5×10^4-1×10^5 HS-5 feeder cells were plated into a 6-well plate, and allowed to attached overnight. HS-5 feeder cells improve viability of frozen MDS bone marrow mononuclear cells (BMMCs) after thawing. On day 2 of the assay, MDS BMMCs were thawed, and divided into three treatment groups corresponding to treatment with DMSO, treatment with 1 μM azacitidine or treatment with 2.5 μM azacitidine. On day 4, after a 48-hour treatment period, MCL-1 dependency of MDS blasts, lymphocytes and monocytes were separately assessed.

Row | Structure (SMILES) | differences in response to alvocidib in patients with or without MCL-1 dependence ([1]; MCL-1 dependence threshold priming >30%, exploratory analysis) | patients who received re-induction for residual leukemia on day 14 ([1]; all enrolled, 3 patients, re-induction with alvocidib and 5+2) | CR rate ([1]; genomic class AML with NPM1 mutation (8/10)) | CR among patients who received re-induction therapy ([1]; re-induction with alvocidib and 5+2) | MTD (alvocidib dose) ([2]; IV bolus/IV infusion on Days 1-3, in combination with 7+3) | safety and feasibility of alvocidib administration prior to 7+3 induction ([2]; in vivo) | patients who achieved CR without MRD and remain in CR ([3]; 9 patients) | median OS ([3]; 32 patients, median follow-up 9.2 months) | duration of CR, range ([3]; CR patients relapsed to date) | CR patients relapsed to date ([3]; of the 22 CR patients, 7 patients) | median RFS ([3]; time from CR/CRi up to disease relapse or death) | patients who achieved CR without evidence of MRD and relapsed ([3]; two patients) | MRD-negative among CR patients with ELN adverse-risk disease ([4]; 4/9, flow cytometry and/or institutional standard assessment) | MRD-negative CR in ELN adverse-risk patients ([4]; exploratory cohort, 3 out of 4) | effect on MCL-1 protein levels in blasts [5] | change of MCL-1 dependency status of blasts (MDS blasts)
1 | CN1CC[C@H](c2c(O)cc(O)c3c(=O)cc(-c4ccccc4Cl)oc23)[C@H](O)C1 [alvocidib, 2-(2-chlorophenyl)-5,7-dihydroxy-8-[(3S,4R)-3-hydroxy-1-methylpiperidin-4-yl]chromen-4-one] | No significant differences | 9% | 80% | None | (30/60 mg/m^2) | safe, feasible | 82% | not reached | 1.4-13.6 months | 32% | not reached | 18% | 44% | 75% | – | –
2 | Nc1ncn([C@@H]2O[C@H](CO)[C@@H](O)[C@H]2O)c(=O)n1 [azacitidine] | – | – | – | – | – | – | – | – | – | – | – | – | – | – | reduce MCL-1 protein levels in blasts | rendered MCL-1-independent blasts MCL-1 dependent
